Assay results taken from patent publication US10820591B2, “Substituted sulfonyl amides for controlling animal pests” (Bayer Aktiengesellschaft, priority 2016, dated 2020).

Assays:
Format in all cases: in vivo
Ctenocephalides felis = Ctenocephalides felis oral test; details: 100 ppm, after 2 days
Description: Ctenocephalides felis—Oral Test Solvent: dimethyl sulfoxide To produce a suitable active compound preparation, 10 mg of active compound are mixed with 0.5 ml of dimethyl sulfoxide. Dilution with citrated cattle blood gives the desired concentration. About 20 unfed adult cat fleas (Ctenocephalides felis) are placed into a chamber which is closed at the top and bottom with gauze. A metal cylinder whose bottom end is closed with parafilm is placed onto the chamber. The cylinder contains the blood/active compound preparation, which can be imbibed by the fleas through the parafilm membrane. After 2 days, the kill in % is determined. 100% means that all of the fleas have been killed; 0% means that none of the fleas have been killed.

Nezara viridula = Nezara viridula spray test; details: 500 g/ha, barley plants, after 4 days
Description: Nezara viridula—Spray Test [table] To produce a suitable active compound preparation, 1 part by weight of active compound is dissolved with the specified parts by weight of solvent and made up to the desired concentration with water containing an emulsifier concentration of 1000 ppm. To produce further test concentrations, the formulation is diluted with emulsifier-containing water. Barley plants (Hordeum vulgare) infected with larvae of the Southern green shield bug (Nezara viridula) are sprayed with an active compound preparation of the desired concentration. After 4 days, the efficacy in % is determined. 100% means that all of the shield bugs have been killed; 0% means that none of the shield bugs have been killed.

Tetranychus urticae = Tetranychus urticae spray test, OP-resistant; details: foliar, 144 h, bean leaf discs, after 6 days, read-out: efficacy
Description: Tetranychus urticae—Spray Test, OP-Resistant
(§1) To produce a suitable active compound preparation, 1 part by weight of active compound is dissolved with the specified parts by weight of solvent and made up to the desired concentration with water containing an emulsifier concentration of 1000 ppm. To produce further test concentrations, the formulation is diluted with emulsifier-containing water.
Discs of bean leaves (Phaseolus vulgaris) infested with all stages of the greenhouse red spider mite (Tetranychus urticae) are sprayed with an active compound preparation of the desired concentration.
After 6 days, the efficacy in % is determined. 100% means that all the spider mites have been killed; 0% means that no spider mites have been killed.

Boophilus microplus = Boophilus microplus injection test; details: 20 μg/animal, after 7 days
Description: Boophilus microplus—Injection Test Solvent: dimethyl sulfoxide To produce a suitable active compound preparation, 10 mg of active compound are mixed with 0.5 ml of solvent and the concentrate is diluted to the desired concentration with solvent. 1 μl of the active compound solution is injected into the abdomen of 5 engorged adult female cattle ticks (Boophilus microplus). The animals are transferred into dishes and kept in a climate-controlled room. Efficacy is assessed after 7 days by laying of fertile eggs. Eggs which are not visibly fertile are stored in a climate-controlled cabinet until the larvae hatch after about 42 days. An efficacy of 100% means that none of the ticks has laid any fertile eggs; 0% means that all the eggs are fertile.

Meloidogyne incognita = Meloidogyne incognita test (sand, lettuce, gall formation); details: Meloidogyne incognita, 336 h, 20 ppm, after 14 days; read-out: nematicidal efficacy (formation of galls)
Procedure, shortened: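 Vessels held sand, diluted compound solution, M. incognita egg/larvae suspension and lettuce seeds, and the plants grew for 14 days. Efficacy in % came from root gall formation: 100% means no galls, 0% means galls equal to the untreated control.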

Phaedon cochleariae = Phaedon cochleariae spray test; details: 500 g/ha, Chinese cabbage leaf discs, after 7 days
Description: Phaedon cochleariae—Spray Test
as §1
After 7 days, the efficacy in % is determined. 100% means that all the beetle larvae have been killed; 0% means that no beetle larvae have been killed.

Nilaparvata lugens = Nilaparvata lugens test; details: 500 g/ha, spray, rice plants, after 4 days
Description: Nilaparvata lugens Test [table] To produce a suitable active compound preparation, 1 part by weight of active compound is dissolved with the specified parts by weight of solvent and made up to the desired concentration with water containing an emulsifier concentration of 1000 ppm. To produce further test concentrations, the formulation is diluted with emulsifier-containing water. Rice plants (Oryza sativa) are sprayed with the active compound preparation of the desired concentration and then infected with larvae of the brown planthopper (Nilaparvata lugens). After 4 days, the efficacy in % is determined. 100% means that all of the planthoppers have been killed; 0% means that none of the planthoppers have been killed.

Lucilia cuprina = Lucilia cuprina test; details: 100 ppm, L1 larvae, after 2 days
Description: Lucilia cuprina Test Solvent: dimethyl sulfoxide To produce a suitable active compound preparation, 10 mg of active compound are mixed with 0.5 ml of dimethyl sulfoxide, and the concentrate is diluted with water to the desired concentration. About 20 L1 larvae of the Australian sheep blowfly (Lucilia cuprina) are transferred into a test vessel containing minced horsemeat and the active compound preparation of the desired concentration. After 2 days, the kill in % is determined. 100% means that all the larvae have been killed; 0% means that no larvae have been killed.

Diabrotica balteata = Diabrotica balteata spray test; details: 160 μg/well, after 7 days
Description: Diabrotica balteata—Spray Test [table] To produce a suitable active compound preparation, 1 part by weight of active compound is dissolved with the specified parts by weight of solvent and made up to the desired concentration with water containing an emulsifier concentration of 1000 ppm. To produce further test concentrations, the formulation is diluted with emulsifier-containing water. Pre-swollen wheat grains (Triticum aestivum) are incubated in a multiwell plate filled with agar and a little water for one day (5 seed grains per cavity). The germinated wheat grains are sprayed with an active compound preparation of the desired concentration. Subsequently, each cavity is infected with 10-20 beetle larvae of Diabrotica balteata. After 7 days, the efficacy in % is determined. 100% means that all maize plants have grown as in the untreated, uninfected control; 0% means that no maize plant has grown.

Aphis gossypii = Aphis gossypii oral test; details: 100 ppm, after 5 days
Description: Aphis gossypii—Oral Test [table] To produce a suitable active compound preparation, 1 part by weight of active compound is dissolved with the stated parts by weight of solvent and made up to the desired concentration with water. 50 μl of the active compound preparation are transferred into microtitre plates and made up to a final volume of 200 μl with 150 μl of IPL41 insect medium (33%+15% sugar). Subsequently, the plates are sealed with parafilm, which a mixed population of the cotton aphid (Aphis gossypii) within a second microtitre plate is able to puncture and imbibe the solution through it. After 5 days, the efficacy in % is determined. 100% means that all the aphids have been killed; 0% means that no aphids have been killed.

SMILES	efficacy (kill in %) (Ctenocephalides felis) [%]	efficacy (Nezara viridula) [%]	pest or weed control at 500 g/ha (Tetranychus urticae) [%]	efficacy (laying of fertile eggs) (Boophilus microplus) [%]	pest or weed control at 20 ppm (Meloidogyne incognita) [%]	efficacy (Phaedon cochleariae) [%]	efficacy (Nilaparvata lugens) [%]	efficacy (kill in %) (Lucilia cuprina) [%]	efficacy (Diabrotica balteata) [%]	efficacy (Aphis gossypii) [%]
COc1cccc(S(=O)(=O)NC(=O)c2ncn(CCC(F)(F)F)c2Cl)c1 [I-032]	70	100	90	90	90	83	100			
Cc1cccc(S(=O)(=O)NC(=O)c2ncn(CCC(F)(F)F)c2Cl)c1 [I-035]		100		100	90	100	100	100		
COc1ccc(Cl)c(S(=O)(=O)NC(=O)c2nc(Cl)n(CCC(F)(F)F)c2Cl)c1 [I-118]					100				100	
CS(=O)(=O)NC(=O)c1cn(Cc2ccc(C(F)(F)F)c(Cl)c2)cn1 [I-412]					100					90
